Marks after values point to notes of the source that are not given here.
Legend:
Assay type in all cases: cell-based
HMGB1 in RAW264.7 cells = experiment: Western blot, RANKL-induced transfer of HMGB1 from nucleus to extracellular space; details: 5 μM, 7.5 μM and 10 μM for 24 hours, 10 ng/ml RANKL 18 hours, dose dependent, FIGS. 22(B), 23(B), 24(B)
Protocol: HMGB1 can affect the proliferation and differentiation of osteoclasts, the HMGB1 which originally exists in a cell nuclear is stimulated by RANKL to transfer to cytoplasm or extracellular space, and the HMGB1 in the extracellular space like pro-inflammatory cytokines can regulate the proliferation and differentiation of osteoclasts via RANK/RANKL pathway or other pathways. 10 ng/ml RANKL is used to stimulate RAW264.7 cells, and the extracellular medium, cytoplasm and nucleus are separated at 0 hours, 6 hours, 12 hours, 18 hours and 24 hours, and then via western blot to confirm the expression level of the HMGB1. After stimulating 24 hours, the HMGB1 obviously transfers to the extracellular space from the nucleus and the cytoplasm (FIGS. 22(A), 23(A), and 24(A)). Moreover, when it is stimulated by RANKL for 18 hours, the effect of transferring to the extracellular space and the cytoplasm is most obvious. Different concentrations of KMUP-1 are administrated for 24 hours, and 10 ng/ml RANKL is used to stimulate for 18 hours. […] Nuclear proteins were extracted according to the instructions of NE-PER kit. 2.5×10^6 cells were plated per well in 24-well plates. […] Subsequently, the cells were added by 5.5 μ[…] and shaken for 5 seconds and then put on ice for 1 minute. After that, the cells were shaken again for 5 seconds and centrifuged (10,000 rpm, 4° C., 5 minutes). […]

[1] = test system: TRAP mRNA in RAW264.7 cells; experiment: RT-PCR, RANKL-induced mRNA expression of TRAP; details: for RANKL-induced mRNA expression level of TRAP: RAW264.7 cells, 24 hours, CTL 100%, mean ± SEM
Text: (§1) The culture medium was discarded. […] [table] f) Running • A.

[2] = test system: c-Src mRNA in RAW264.7 cells; experiment: RT-PCR, RANKL-induced mRNA expression of c-Src; details: for RANKL-induced mRNA expression level of c-Src: RAW264.7 cells, 24 hours, CTL 100%, mean ± SEM
Text: as §1

[3] = test system: JNK phosphorylation in RAW264.7 cells; experiment: Western blot, phosphorylation of JNK induced by RANKL; details: 7.5 μM and 10 μM, RANKL 15 minutes, FIG. 10
Protocol: MAP kinases including ERK, JNK and p38 are stimulated by RANKL to be phosphorylized and further influence the down-stream key transcription factors which induce the differentiation of osteoclast-like cells such as c-Fos, NFATc1, etc. Before estimating the drug effect, 10 ng/ml RANKL are used to induce the phosphorylation of ERK, JNK and p38 at different time points. […] It is shown that KMUP-1 can reduce the activation of MAP kinases induced by RANKL. […] The proteins were collected by scraping and were centrifuged (13,000 rpm, 4° C., 30 minutes). The supernatant was stored in an eppendorf in −80° C. • c) Concentrations of the proteins were examined by Bio-Red DC Protein Assay. After knowing the concentrations, the proteins were diluted to specific concentrations by adding ddH2O. One forth volume of the diluted proteins of sample buffer was added into the diluted proteins and was put in boiled water for 5 min and then was chilled on ice for 5 minutes. After short time centrifugation, the diluted proteins could be injected into wells of a gel. The gel was run at 100 V for 10 minutes until the proteins were driven to the intersection between a loading gel and a running gel. Then, the voltage was swopped to 200 V for 40 minutes. • d) A PVDF membrane was immersed in Methanol for 2 minutes. After two washes in ddH2O, the membrane was immersed in transfer buffer for 15 minutes. […]

RAW264.7 cells = experiment: MTT assay, proliferation induced by RANKL; details: RAW264.7, 5 μM, 7.5 μM, 10 μM, FIG. 1
Protocol: Cells were plated onto 96-well plates at a density of 10^3 cells per well. After 24 hours incubation, the different concentrations of the different drugs were administrated into the plates. […] Subsequently, the medium was removed, and 100 μl/well isopropanol was added to solved formazan. The plates were shaken for 15 minutes and stood for 15 minutes, and then the absorbance was measured at wavelength of 540 nm and 630 nm. The ratio of the absorbance of treated cells relative to that of the control cells was calculated and expressed as a percentage of cell survival.

[4] = test system: TNF-α secretion by RAW264.7 cells; experiment: ELISA, RANKL-induced secretion of TNF-α; details: RAW264.7, ELISA, FIG. 6
Protocol: Under RANKL stimulation, mononuclear RAW264.7 cells can secrete pro-inflammatory cytokines such as TNF-α, IL-1, IL-6, etc. ELISA is used to measure that KMUP-1 influences RANKL to induce the secretion of pro-inflammatory cytokines. […] 10^5 cells were plated per well in 24-well plates. […] After 24 hours reaction, the reaction fluid was centrifuged (13,000 rpm, 4° C., 20 minutes), and then the supernatant was tasted by ELISA kit (R&D system and eBioscience™) to detect the amount of TNF-α, IL-1β, IL-6, and IL-10. The experimental process is followed with the instructions of the kit.

[5] = test system: TRAF6 mRNA in RAW264.7 cells; experiment: RT-PCR, RANKL-induced mRNA expression of TRAF6; details: for RANKL-induced mRNA expression level of TRAF6: RAW264.7 cells, 24 hours, CTL 100%, mean ± SEM
Text: as §1

[6] = 10 ng/ml RANKL, summary of Table 1

`Cn1c(=O)c2c(ncn2CCN2CCN(c3ccccc3Cl)CC2)n(C)c1=O` [KMUP-1, 7-[2-[4-(2-Chlorophenyl)piperazin-1-yl]ethyl] theophylline] was tested, and the “RANKL-induced transfer of HMGB1 to extracellular space from cell nucleus” value (HMGB1 in RAW264.7 cells) was “can inhibit that RANKL induces HMGB1 to transfer to extracellular space from a cell nuclear”, the “effect on mRNA expression of TRAP induced by RANKL (in words)” value [1, 6] was “inhibits the mRNA expression” and the “RANKL-induced mRNA expression level of TRAP” value ([1]; RANKL 10 ng/ml + KMUP-1 1 μM) was 422.4 ± 24.8%. The “RANKL-induced mRNA expression level of TRAP” value ([1]; RANKL 10 ng/ml + KMUP-1 2.5 μM) was 427.7 ± 39.3%, the “RANKL-induced mRNA expression level of TRAP” value ([1]; RANKL 10 ng/ml + KMUP-1 5 μM) was 359.9 ± 20.7% ^b and the “RANKL-induced mRNA expression level of TRAP” value ([1]; RANKL 10 ng/ml + KMUP-1 7.5 μM) was 293.8 ± 30.1% ^b. The “RANKL-induced mRNA expression level of TRAP” value ([1]; RANKL 10 ng/ml + KMUP-1 10 μM) was 259.3 ± 18.3% ^b, the “effect on mRNA expression of c-Src induced by RANKL (in words)” value [2, 6] was “not obviously inhibits” and the “RANKL-induced mRNA expression level of c-Src” value ([2]; RANKL 10 ng/ml + KMUP-1 1 μM) was 101.4 ± 4.5%. For the same compound, the “RANKL-induced mRNA expression level of c-Src” value ([2]; RANKL 10 ng/ml + KMUP-1 2.5 μM) was 103.9 ± 2.7%, the “RANKL-induced mRNA expression level of c-Src” value ([2]; RANKL 10 ng/ml + KMUP-1 5 μM) was 95.8 ± 2.8% ^ and the “RANKL-induced mRNA expression level of c-Src” value ([2]; RANKL 10 ng/ml + KMUP-1 7.5 μM) was 91.5 ± 4.5% ^. The “RANKL-induced mRNA expression level of c-Src” value ([2]; RANKL 10 ng/ml + KMUP-1 10 μM) was 98.6 ± 6.2% ^, the “phosphorylation of JNK induced by RANKL” value [3] was “can efficiently inhibit the phosphorylation of ERK, JNK and p38 induced by RANKL” and the “cell proliferation induced by RANKL (MTT assay)” value (RAW264.7 cells) was “can inhibit the cell proliferation induced by RANKL”. The “RANKL-induced secretion of TNF-α” value [4] was “presents a dose dependent inhibition phenomenon”, the “effect on mRNA expression of TRAF6 induced by RANKL (in words)” value [5, 6] was “not obviously inhibits” and the “RANKL-induced mRNA expression level of TRAF6” value ([5]; RANKL 10 ng/ml + KMUP-1 1 μM) was 100.2 ± 4.7%. The “RANKL-induced mRNA expression level of TRAF6” value ([5]; RANKL 10 ng/ml + KMUP-1 2.5 μM) was 123.8 ± 2.3%, the “RANKL-induced mRNA expression level of TRAF6” value ([5]; RANKL 10 ng/ml + KMUP-1 5 μM) was 125.9 ± 2.9% ^ and the “RANKL-induced mRNA expression level of TRAF6” value ([5]; RANKL 10 ng/ml + KMUP-1 7.5 μM) was 128.4 ± 6.5% ^. For the same compound, the “RANKL-induced mRNA expression level of TRAF6” value ([5]; RANKL 10 ng/ml + KMUP-1 10 μM) was 127.2 ± 1.3% ^.

Reference: patent US8507506B2, “Theophylline derivative inhibits osteoporosis” (Kaohsiung Medical University, priority 2011, dated 2013)
